This note sets out measurements from patent publication US11098032B2, “Pyran dervatives as CYP11A1 (cytochrome P450 monooxygenase 11A1) inhibitors” (ORION CORPORATION, priority 2016, dated 2021).

pIC50: −log10 of the molar value.

In the assay the target is T1, CYP11A1 (Homo sapiens, UniProt P05108).
T1 construct: human H295R adrenocortical carcinoma cell line was used as source of enzyme; endogenous in cells; host or cells: H295R human adrenocortical carcinoma cells
T1 sequence (P05108 40-521): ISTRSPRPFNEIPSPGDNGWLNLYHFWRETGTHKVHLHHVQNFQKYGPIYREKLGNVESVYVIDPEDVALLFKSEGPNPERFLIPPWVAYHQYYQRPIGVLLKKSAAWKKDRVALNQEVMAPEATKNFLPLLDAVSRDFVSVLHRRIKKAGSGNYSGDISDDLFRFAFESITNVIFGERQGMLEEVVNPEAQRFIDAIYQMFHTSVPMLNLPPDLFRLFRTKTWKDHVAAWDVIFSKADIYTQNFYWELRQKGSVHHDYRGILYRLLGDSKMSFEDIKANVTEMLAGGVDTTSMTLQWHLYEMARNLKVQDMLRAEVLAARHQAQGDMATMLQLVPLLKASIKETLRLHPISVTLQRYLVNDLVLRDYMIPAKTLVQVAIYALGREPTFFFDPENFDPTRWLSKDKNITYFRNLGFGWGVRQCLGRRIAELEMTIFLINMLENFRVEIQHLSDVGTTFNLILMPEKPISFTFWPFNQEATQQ
Briefly: CYP11A1 inhibition: modified isocaproic acid release assay (IARA) in H295R cells. The settings on record: human H295R adrenocortical carcinoma cells treated three days, 3 nM [24,25-3H]-labelled cholesterol, 1% DMSO, 10 concentrations in duplicates; read-out: IC50 of the test compounds on CYP11A1 inhibition. It counts as cell-based. An outline of the steps: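 H295R adrenocortical cells treated three days with test compounds at 10 concentrations in duplicate plus 3 nM [24,25-3H]-cholesterol, 1% DMSO final. Released radiolabelled isocaproic acid measured by scintillation counting after dextran-coated charcoal extraction; IC50 determined.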
As for `Cc1ccc(S(=O)(=O)N=S(C)(=O)C2CCC(COc3coc(CN4Cc5ccccc5C4)cc3=O)CC2)cc1` (stereo not drawn) [Compound 239, N-{[4-({[6-(1,3-Dihydro-2H-isoindol-2-ylmethyl)-4-oxo-4H-pyran-3-yl]oxy}-methyl)cyclohexyl](methyl)oxido-λ^6-sulfanylidene}-4-methylbenzenesulfonamide], the negative-log IC50 (pIC50) is 6.52 to 6.82. As for `CS(=O)(=O)N1CCC(COc2coc(CN3Cc4ccc(F)cc4C3)cc2=O)CC1` [Compound 186, 2-((5-Fluoroisoindolin-2-yl)methyl)-5-((1-(methylsulfonyl)piperidin-4-yl)-methoxy)-4H-pyran-4-one], the pIC50 was above 6.82. The value for `Cc1ccc(S(=O)(=O)N2CCN(C(=O)COc3coc(CN4Cc5ccccc5C4)cc3=O)CC2)cc1` [Compound 157, 2-(Isoindolin-2-ylmethyl)-5-(2-oxo-2-(4-tosylpiperazin-1-yl)ethoxy)-4H-pyran-4-one] was 5.70 to 6.52; that for `CS(=O)(=O)N1CCC(COc2coc(CN3Cc4ccc(C#N)cc4C3)cc2=O)CC1` [Compound 245a, 2-((5-((1-(methylsulfonyl)piperidin-4-yl)methoxy)-4-oxo-4H-pyran-2-yl)methyl)-isoindoline-5-carbonitrile] was 5.70 to 6.52; that for `O=c1cc(CN2Cc3ccccc3C2)occ1OCc1ccc(-c2ccccc2)cc1` [Compound 164, 5-([1,1′-Biphenyl]-4-ylmethoxy)-2-(isoindolin-2-ylmethyl)-4H-pyran-4-one] was 6.52 to 6.82. Regarding `CNS(=O)(=O)c1ccc(COc2coc(CN3Cc4ccccc4C3)cc2=O)cc1` [Compound 8, 4-(((6-(Isoindolin-2-ylmethyl)-4-oxo-4H-pyran-3-yl)oxy)methyl)-N-methylbenzenesulfonamide], the pIC50 was above 6.82.

For `O=c1cc(CN2Cc3ccccc3C2)occ1OCC1CCN(S(=O)(=O)CC(F)(F)F)CC1` [Compound 253], the pIC50 was 5.70 to 6.52. Next, `CS(=N)(=O)c1ccc(COc2coc(CN3Cc4ccc(OC(F)(F)F)cc4C3)cc2=O)cc1` (stereo not drawn) [Compound 90, 5-((4-(S-Methylsulfonimidoyl)benzyl)oxy)-2-((5-(trifluoromethoxy)isoindolin-2-yl)methyl)-4H-pyran-4-one]: above 6.82.

As to `CC(C)C(=O)N1CCC(COc2coc(CN3Cc4ccccc4C3)cc2=O)CC1` [Compound 272, 5-((1-Isobutyrylpiperidin-4-yl)methoxy)-2-(isoindolin-2-ylmethyl)-4H-pyran-4-one], the pIC50 is above 6.82. With `CCN(CC)S(=O)(=O)c1ccc(COc2coc(CN3Cc4ccccc4C3)cc2=O)cc1` [Compound 4, N,N-Diethyl-4-(((6-(isoindolin-2-ylmethyl)-4-oxo-4H-pyran-3-yl)oxy)methyl)-benzenesulfonamide], the pIC50 is 6.52 to 6.82.

As for `CS(=O)(=O)c1ccc(COc2coc(CN3Cc4ccc(F)cc4C3)cc2=O)cc1` [Compound 63, 2-((5-Fluoroisoindolin-2-yl)methyl)-5-((4-(methylsulfonyl)benzyl)oxy)-4H-pyran-4-one], the pIC50 is 6.52 to 6.82. As for `CC(C)(O)c1ccc(COc2coc(CN3Cc4cccc(F)c4C3)cc2=O)cc1` [Compound 33, 2-((4-Fluoroisoindolin-2-yl)methyl)-5-((4-(2-hydroxypropan-2-yl)benzyl)oxy)-4H-pyran-4-one], the pIC50 was 5.70 to 6.52. The value for `O=C(c1ccc(COc2coc(CN3Cc4ccccc4C3)cc2=O)cc1)N1CCCCC1` [Compound 128, 2-(Isoindolin-2-ylmethyl)-5-((4-(piperidine-1-carbonyl)benzyl)oxy)-4H-pyran-4-one] was 6.52 to 6.82. Take `O=c1cc(CN2Cc3ccccc3C2)occ1OCC1CCOCC1` [Compound 67, 2-(Isoindolin-2-ylmethyl)-5-((tetrahydro-2H-pyran-4-yl)methoxy)-4H-pyran-4-one]: the negative-log IC50 (pIC50) is 6.52 to 6.82. Next, `O=c1cc(CN2Cc3ccccc3C2)occ1OCC1CCSCC1` [Compound 196, 2-(Isoindolin-2-ylmethyl)-5-((tetrahydro-2H-thiopyran-4-yl)methoxy)-4H-pyran-4-one]: above 6.82; `NC(=O)c1ccc(COc2coc(CN3CCc4ccccc4C3)cc2=O)c(F)c1` [Compound 55, 4-(((6-((3,4-Dihydroisoquinolin-2(1H)-yl)methyl)-4-oxo-4H-pyran-3-yl)oxy)-methyl)-3-fluorobenzamide]: 5.70 to 6.52. The value for `O=c1cc(CN2Cc3ccccc3C2)occ1OCc1ccc(-n2cc(Br)cn2)cc1` [Compound 39, 5-((4-(4-Bromo-1H-pyrazol-1-yl)benzyl)oxy)-2-(isoindolin-2-ylmethyl)-4H-pyran-4-one] was 6.52 to 6.82. For the molecule `O=c1cc(CN2Cc3ccccc3C2)occ1OCc1cccc([N+](=O)[O-])c1` [Compound 105, 2-(Isoindolin-2-ylmethyl)-5-((3-nitrobenzyl)oxy)-4H-pyran-4-one], the pIC50 was 5.70 to 6.52. The value for `O=C(c1ccc(COc2coc(CN3Cc4ccccc4C3)cc2=O)cc1)N1CCCC(O)C1` (stereo not drawn) [Compound 160, 5-((4-(3-Hydroxypiperidine-1-carbonyl)benzyl)oxy)-2-(isoindolin-2-ylmethyl)-4H-pyran-4-one] was 5.70 to 6.52. For `CN(CCO)S(=O)(=O)c1ccc(COc2coc(CN3Cc4ccccc4C3)cc2=O)cc1` [Compound 12, N-(2-Hydroxyethyl)-4-(((6-(isoindolin-2-ylmethyl)-4-oxo-4H-pyran-3-yl)-oxy)methyl)-N-methylbenzenesulfonamide], the pIC50 is above 6.82. For `COCCS(=O)(=O)c1ccc(COc2coc(CN3Cc4ccccc4C3)cc2=O)cc1` [Compound 28, 2-(Isoindolin-2-ylmethyl)-5-((4-((2-methoxyethyl)sulfonyl)benzyl)oxy)-4H-pyran-4-one], the pIC50 is 6.52 to 6.82.

As for `COCc1cccnc1N1CCN(C(=O)COc2coc(CN3Cc4ccccc4C3)cc2=O)CC1` [Compound 159, 2-(Isoindolin-2-ylmethyl)-5-(2-(4-(3-(methoxymethyl)pyridin-2-yl)piperazin-1-yl)-2-oxoethoxy)-4H-pyran-4-one], the pIC50 was 5.70 to 6.52. Regarding `CS(=O)(=O)N1CCC(COc2coc(CN3Cc4ccccc4C3)cc2=O)C(O)C1` (stereo not drawn) [Compound 193, 5-((3-Hydroxy-1-(methylsulfonyl)piperidin-4-yl)methoxy)-2-(isoindolin-2-yl-methyl)-4H-pyran-4-one], the pIC50 is 5.70 to 6.52.

Consider `COc1ccc2c(c1)CCN(Cc1cc(=O)c(OCc3ccc(C(C)(C)O)cc3)co1)C2` [Compound 52, 5-((4-(2-Hydroxypropan-2-yl)benzyl)oxy)-2-((6-methoxy-3,4-dihydroisoquinolin-2(1H)-yl)methyl)-4H-pyran-4-one], for which the pIC50 was 5.70 to 6.52.

On to `CC1(COc2coc(CN3Cc4ccccc4C3)cc2=O)CCN(S(C)(=O)=O)CC1` [Compound 191, 2-(Isoindolin-2-ylmethyl)-5-((4-methyl-1-(methylsulfonyl)piperidin-4-yl)-methoxy)-4H-pyran-4-one], for which the pIC50 is 6.52 to 6.82.

As to `CC1c2ccccc2CCN1Cc1cc(=O)c(OCc2ccc(C(C)(C)O)cc2)co1` (stereo not drawn) [Compound 59, 5-((4-(2-Hydroxypropan-2-yl)benzyl)oxy)-2-((1-methyl-3,4-dihydroisoquinolin-2(1H)-yl)methyl)-4H-pyran-4-one], the pIC50 was 5.70 to 6.52. In the case of `CCS(=O)(=O)N1CCC(C)(COc2coc(CN3Cc4ccccc4C3)cc2=O)CC1` [Compound 192, 5-((1-(Ethylsulfonyl)-4-methylpiperidin-4-yl)methoxy)-2-(isoindolin-2-ylmethyl)-4H-pyran-4-one], the negative-log IC50 (pIC50) is above 6.82.

Consider `N=S1(=O)CCC(COc2coc(CN3Cc4ccccc4C3)cc2=O)CC1` (stereo not drawn) [Compound 242, 5-((1-Imino-1-oxidohexahydro-1λ^6-thiopyran-4-yl)methoxy)-2-(isoindolin-2-ylmethyl)-4H-pyran-4-one], for which the pIC50 was 5.70 to 6.52. For the molecule `Cc1ccc(S(=O)(=O)N=S2(=O)CCC(COc3coc(CN4Cc5ccccc5C4)cc3=O)CC2)cc1` (stereo not drawn) [Compound 194, N-(4-(((6-(Isoindolin-2-ylmethyl)-4-oxo-4H-pyran-3-yl)oxy)methyl)-1-oxido-tetrahydro-2H-thiopyran-1-ylidene)-4-methylbenzenesulfonamide], the negative-log IC50 (pIC50) is 6.52 to 6.82. For the molecule `CN=S(C)(=O)c1ccc(COc2coc(CN3Cc4ccccc4C3)cc2=O)cc1` (stereo not drawn) [Compound 92, 5-((4-(N,S-Dimethylsulfonimidoyl)benzyl)oxy)-2-(isoindolin-2-ylmethyl)-4H-pyran-4-one], the pIC50 was above 6.82. The value for `CN(C)C(=O)c1ccc(COc2coc(CN3Cc4ccc(F)cc4C3)cc2=O)cc1` [Compound 127, 4-(((6-((5-Fluoroisoindolin-2-yl)methyl)-4-oxo-4H-pyran-3-yl)oxy)methyl)-N,N-dimethylbenzamide] was 6.52 to 6.82. `CS(=O)(=O)N1CCC(COc2coc(CN3Cc4ccc(Cl)cc4C3)cc2=O)CC1` [Compound 241, 2-((5-Chloroisoindolin-2-yl)methyl)-5-((1-(methylsulfonyl)piperidin-4-yl)-methoxy)-4H-pyran-4-one]: the pIC50 is 6.52 to 6.82. `CC(C)S(=O)(=O)N1CCC(F)(COc2coc(CN3Cc4ccccc4C3)cc2=O)CC1` [Compound 236, 5-((4-Fluoro-1-(isopropylsulfonyl)piperidin-4-yl)methoxy)-2-(isoindolin-2-ylmethyl)-4H-pyran-4-one]: the negative-log IC50 (pIC50) was 6.52 to 6.82.

One may read the pIC50 as the negative decadic logarithm of the IC50, by convention in mol/L.
